Measured values taken from patent publication EP4711368A1 (priority 2023, dated 2024).

Tests used:
[1] = test system: SD rats; assay: animal or person; type: in vivo; details: rat, in vivo, iv
[2] = test system: SD rats; assay: TC-ED50 after single intravenous injection (Table 2; method not described); type: in vivo
[3] = test system: SD rats; details: rat, in vivo; for MLD: iv; as to Onset time: test concentration or dose not given here; as to Righting feflex duration: test concentration or dose not given here; as to Sedation Duration: test concentration or dose not given here

SMILES | Minimal effective analgesic dose [1] | Minimal effective anesthetic dose [1] | Onset time [1] | Righting feflex duration [1] | Sedation Duration [1] | TC-ED50 [2] | TI [3] | MLD [3]
Cc1cnc2n1-c1ccc(Br)cc1C(c1ccccn1)=NC2COC(=O)C(C)C (stereo not drawn) [Compound 97] | 10 mg/kg | 2.0 mg/kg | 0.4 to 0.7 min | 0.7 to 129.9 min | 16.9 to 187.5 min | 9.9 mg/kg | 15.0 | 30 mg/kg
CCC(=O)OCC1N=C(c2ccccn2)c2cc(Br)ccc2-n2c(C)cnc21 (stereo not drawn) [Compound 98] | 20 mg/kg | 5.0 mg/kg | 0.5 to 0.6 min | 11.6 to 17.4 min | 72.5 to 208.7 min | 22.0 mg/kg | 6.0 | 30 mg/kg
CC(C)OC(=O)OCC1N=C(c2ccccn2)c2cc(Br)ccc2N(C)C1=O (stereo not drawn) [Compound 55] | 20 mg/kg | 1.0 mg/kg | 0.2 to 0.7 min | 2.4 to 25.4 min | 11.3 to 141.0 min | 15.4 mg/kg | >20. 0 | >20 mg/kg
